# Experimental data published in publication PMC5730616, “Inhibition of human kynurenine aminotransferase isozymes by estrogen and its derivatives” (Scientific Reports, 2017).
# Where “and” joins values, the source holds several entries; their conditions need not be identical. Equal entries are not always repeated. Structures can show the parent of a compound that is named as a salt. Where two headings read alike, the source gives them in different places.
# Tests used:
# KAT-II [1] = target: T1, KAT-II (Homo sapiens, UniProt Q8N5Z0); design: method as in PMID 27367665; details: previously measured; cited from earlier work
# T1 construct: made in house
# KAT-II [2] = target: T1, KAT-II; design: method as in PMID 27367665; details: SPR, chi^2 0.34; cited from earlier work
# human KAT-I = target: T2, human KAT-I (Homo sapiens, UniProt Q16773); test: HPLC inhibition assay on recombinant human KAT-I (KYNA production); format: biochemical
# T2 sequence (Q16773 1-422): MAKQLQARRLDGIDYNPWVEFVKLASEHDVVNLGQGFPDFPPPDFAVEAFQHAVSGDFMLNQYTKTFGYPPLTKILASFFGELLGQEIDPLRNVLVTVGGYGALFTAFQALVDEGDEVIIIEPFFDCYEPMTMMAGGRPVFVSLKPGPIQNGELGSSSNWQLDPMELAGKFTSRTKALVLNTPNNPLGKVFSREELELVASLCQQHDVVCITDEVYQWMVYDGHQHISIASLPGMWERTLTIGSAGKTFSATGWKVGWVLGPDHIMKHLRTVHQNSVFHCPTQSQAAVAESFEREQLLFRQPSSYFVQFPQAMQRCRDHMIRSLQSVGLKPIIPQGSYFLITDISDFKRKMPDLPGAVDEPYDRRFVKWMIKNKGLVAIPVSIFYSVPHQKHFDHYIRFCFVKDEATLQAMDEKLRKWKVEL
# Procedure: The KAT inhibition assay was based on that described previously[35]. 0.7 µg of KAT-I or KAT-II was incubated at 37 °C for 10 minutes in a 50 µL reaction mixture containing PLP (50 µM), α-ketoglutarate (5 mM), L-KYN (5 mM) in PBS, pH 7.4, and the inhibitor studied (1–2000 µM). Following incubation, the reaction was terminated by adding formic acid (0.8 M) in a 1:1 ratio. 50 µL of the mixture was transferred into a vial with 950 µL of water for HPLC analysis.
# KAT-II [3] = target: T1, KAT-II; test: HPLC inhibition assay on recombinant human KAT-II (KYNA production); format: biochemical
# Procedure: GraphPad Prism v7.02 software[59] was used to develop a nonlinear regression fit of the data collected in the inhibition assays. The IC50 is reported with the standard error.
# The expression and purification of recombinant KAT-I and KAT-II protein was completed as previously described[60],[61].
# The KAT inhibition assay was based on that described previously. […] Following incubation, the reaction was terminated by adding formic acid (0.8 M) in a 1:1 ratio. 50 µL of the mixture was transferred into a vial with 950 µL of water for HPLC analysis.
# The production of KYNA was measured using HPLC with UV detection at a wavelength of 330 nm, using a C18 reverse-phase column, and 50% (v/v) water and 50% (v/v) methanol mobile phase. The data was collected in triplicate.
# KAT-II [4] = target: T1, KAT-II; test: Surface plasmon resonance binding assay, steady state affinity model; details: KAT-II on CM5 chip, 25 °C, chi^2 0.481
# Procedure: SPR was employed to evaluate the binding profile of estradiol disulfate on KAT-II. KAT-II was bound to a CM5 chip by amine coupling (achieving approximately 8000 RU). […] Due to the nature of this interaction, kinetic analyses could not be performed to directly evaluate the association and dissociation rate constants.
# SPR binding affinity measurements were performed using the Biacore T200 with a CM5 sensor chip (GE Healthcare Life Sciences, Sydney, Australia). The experiment was prepared and obtained with the Biacore T200 Control Software, and analysed with the Biacore T200 Evaluation Software.
# Prior to performing the SPR experiments, the solutions were filter sterilised for 10 min at 25 °C. KAT-II was diluted to a concentration of 350 µg/mL using sodium acetate (pH 4.5). The Biacore T200 compartment temperature was controlled at 25 °C and the flow rate was set to 10 µL/min. Using a 1:1 mixture of EDC (400 mM) and sulfo-NHS (100 mM), two flow cells on a CM5 sensor chip (containing a carboxymethylated dextran surface) were activated. Flow cell one contained a blank immobilisation (PBST buffer injection) and flow cell two had the prepared KAT-II sample injected. The two flow cells were deactivated using an injection of 1 M ethanolamine.
# The analyte, estradiol disulfate, was prepared in running buffer (PBST with 5% DMSO) in a concentration series from 170 nM-43750 nM. […]
# [5] = recombinant human KAT-I, inhibitor 1–2000 µM, read-out: IC50 on KAT-I
# [6] = recombinant human KAT-II, inhibitor 1–2000 µM, read-out: IC50 on KAT-II
# T1 sequence (Q8N5Z0 30-425): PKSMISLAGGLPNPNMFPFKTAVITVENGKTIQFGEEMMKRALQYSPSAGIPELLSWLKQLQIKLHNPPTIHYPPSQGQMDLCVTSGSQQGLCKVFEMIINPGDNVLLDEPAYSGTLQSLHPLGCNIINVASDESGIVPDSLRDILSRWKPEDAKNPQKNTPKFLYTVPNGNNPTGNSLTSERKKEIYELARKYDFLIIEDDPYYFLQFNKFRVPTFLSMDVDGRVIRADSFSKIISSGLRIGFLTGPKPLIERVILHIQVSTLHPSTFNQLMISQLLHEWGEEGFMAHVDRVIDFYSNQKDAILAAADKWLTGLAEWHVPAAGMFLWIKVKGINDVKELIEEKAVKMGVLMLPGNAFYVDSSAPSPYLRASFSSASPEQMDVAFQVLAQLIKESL
compound,measurement,setting,value
CC1COc2c(N3CCN(N)CC3)c(F)cc3c(=O)c(C(=O)O)cn1c23 (stereo not drawn) [BFF-122],IC50,KAT-II [1],15 to 20 µM
O=C(O)C(Cc1ccccc1)N1C(=O)c2cc(Cl)c(Cl)cc2C1=O (stereo not drawn) [NS-1502],IC50,KAT-II [1],315 µM
same,Kd,KAT-II [2],7.2 µM
"NC1Cc2ccccc2N(O)C1=O (stereo not drawn) [PF-04859989, reference compound]",IC50,KAT-II [1],1 to 3 µM
"C[C@]12CCC3c4ccc(OS(=O)(=O)O)cc4CCC3C1CC[C@@H]2O (stereo partly drawn) [estradiol 3-sulfate, estradiol 3-sulfate sodium salt]",IC50,human KAT-I; [5],> 2 mM
same,IC50,KAT-II [3]; [6],> 2 mM
"C[C@]12CC[C@@H]3c4ccc(OS(=O)(=O)O)cc4CC[C@H]3[C@@H]1CC[C@@H]2OS(=O)(=O)O [estradiol disulfate, estradiol 3,17-disulfate dipotassium salt]",IC50,"human KAT-I; recombinant human KAT-I, PLP 50 µM, L-KYN 5 mM, 37 °C 10 min, ± standard error, read-out: IC50 on KAT-I",0.292 mM
same,Increase of inhibition compared to estradiol,"KAT-II [3]; KAT-I and KAT-II inhibition assays, attributed to the 17-sulfate moiety",10–100 fold
same,IC50,"KAT-II [3]; recombinant human KAT-II, PLP 50 µM, L-KYN 5 mM, 37 °C 10 min, ± standard error, read-out: IC50 on KAT-II",0.0263 mM
same,Reversibility of KAT-II inhibition,KAT-II [3]; shown by varying PLP concentration in the reaction mixture,reversible
same,Kd,KAT-II [4],5.05 µM
"C[C@]12CC[C@@H]3c4ccc(O)cc4CC[C@H]3[C@@H]1CC[C@@H]2O [estradiol, reference compound]",IC50,human KAT-I,> 2 mM
same,IC50,KAT-II [3],> 2 mM
"C[C@]12CCC3c4ccc(OS(=O)(=O)O)cc4CCC3C1CCC2=O (stereo partly drawn) [estrone sulfate, estrone sulfate potassium salt]",IC50,human KAT-I; [5],> 2 mM
same,IC50,KAT-II [3]; [6],> 2 mM and ~2 mM
